# Assay results published in US20260363243A1 (priority 2022, published 2026).
# Where two headings read alike, the source gives them in different places.
# Experiments:
# cucumber downy mildew [1] = test: Activity in vivo for inhibiting cucumber downy mildew (potting method, greenhouse)
# Excerpt: The test and investigation method refers to a SOP-SC-1098 cucumber downy mildew potting method in the fungicide section of Standard operation Specification for testing biological Activity of pesticides written by Kang Zhuo and Gu Baogen.
# Phytophthora capsici = test: In vitro inhibition of hypha growth of oomycete pathogens (microplate, OD595): Phytophthora capsici; assay type: cell-based
# Phytophthora sojae = test: In vitro inhibition of hypha growth of oomycete pathogens (microplate, OD595): Phytophthora sojae; assay type: cell-based
# Phytophthora nicotianae = test: In vitro inhibition of hypha growth of oomycete pathogens (microplate, OD595): Phytophthora nicotianae; assay type: cell-based
# Phytophthora infestans = test: microbe, parasite or virus in culture; assay type: cell-based
# cucumber downy mildew [2] = conditions: Table 3, data from Li, J. L. et al. 2020, cited from earlier work
# [3] = 0.078 mg/L, re-screening, Table 2
# [4] = 0.312 mg/L, re-screening, Table 2
# [5] = 1.25 mg/L, re-screening, Table 2
# [6] = read-out: inhibitory activity on hypha growth
# [7] = Phytophthora nicotianae, read-out: inhibitory activity on hypha growth
smiles,measurement,setting,value
COC(CC(=O)N1CCC(c2nc(C3=NOC(c4c(F)cccc4F)C3)cs2)CC1)OCC(F)(F)F (stereo not shown) [II-18],efficacy compared with OXA,"cucumber downy mildew [1]; 0.005 mg/L, in words",comparable to that of the control agent OXA
same,Control effect,"cucumber downy mildew [1]; 0.005 mg/L, re-screening, Table 2",A (90%≤A≤100%)
same,Control effect,"cucumber downy mildew [1]; 0.02 mg/L, re-screening, Table 2",A (90%≤A≤100%)
same,efficacy compared with dimethomorph and cyazofamid,"cucumber downy mildew [1]; 0.078 mg/L, in words",superior to that of dimethomorph and cyazofamid
same,efficacy compared with oxathiapiprolin,"cucumber downy mildew [1]; 0.078 mg/L, in words",equivalent to that of oxathiapiprolin at the same concentration
same,Control effect,"cucumber downy mildew [1]; 0.078 mg/L, re-screening",≥ 90%
same,Control effect,cucumber downy mildew [1]; [3],A (90%≤A≤100%)
same,Control effect,cucumber downy mildew [1]; [4],A (90%≤A≤100%)
same,Control effect,"cucumber downy mildew [1]; 0.625 mg/L, Table 3",A (90% ≤ A ≤ 100%)
same,Control effect,"cucumber downy mildew [1]; 1.25 mg/L, Table 1",A (90%≤A≤100%)
same,Control effect,cucumber downy mildew [1]; [5],A (90%≤A≤100%)
same,Control effect,"cucumber downy mildew [1]; 2.5 mg/L, Table 3",A (90% ≤ A ≤ 100%)
same,Control effect,"cucumber downy mildew [1]; 5 mg/L, Table 1",A (90%≤A≤100%)
same,Control effect,"cucumber downy mildew [1]; 10 mg/L, Table 3",A (90% ≤ A ≤ 100%)
same,Control effect,"cucumber downy mildew [1]; 20 mg/L, Table 1",A (90%≤A≤100%)
same,bactericidal activity,"cucumber downy mildew [1]; re-screening, in words",excellent bactericidal activity
same,inhibitory activity compared with OXA,"Phytophthora capsici; 5, 0.5 and 0.05 mg/L, in words",comparable to that of the control agent OXA
same,inhibition at 0.005 µg/mL,Phytophthora capsici; [6],90 to 100%
same,inhibition at 0.05 µg/mL,Phytophthora capsici; [6],90 to 100%
same,inhibition at 0.5 µg/mL,Phytophthora capsici; [6],90 to 100%
same,inhibition at 5 µg/mL,Phytophthora capsici; [6],90 to 100%
same,inhibitory activity compared with OXA,"Phytophthora sojae; 5, 0.5 and 0.05 mg/L, in words",comparable to that of the control agent OXA
same,inhibition at 0.005 µg/mL,Phytophthora sojae; [6],90 to 100%
same,inhibition at 0.05 µg/mL,Phytophthora sojae; [6],90 to 100%
same,inhibition at 0.5 µg/mL,Phytophthora sojae; [6],90 to 100%
same,inhibition at 5 µg/mL,Phytophthora sojae; [6],90 to 100%
same,inhibition at 0.005 µg/mL,Phytophthora nicotianae; [7],75 to 90%
same,inhibition at 0.05 µg/mL,Phytophthora nicotianae; [7],90 to 100%
same,inhibition at 0.5 µg/mL,Phytophthora nicotianae; [7],90 to 100%
same,inhibition at 5 µg/mL,Phytophthora nicotianae; [7],90 to 100%
same,inhibitory activity compared with OXA,"Phytophthora nicotianae; Pythium nicotianae, 5, 0.5 and 0.05 mg/L, in words",comparable to that of the control agent OXA
same,inhibitory activity compared with OXA,"Phytophthora infestans; 5, 0.5 and 0.05 mg/L, in words",comparable to that of the control agent OXA
same,inhibition at 0.005 µg/mL,Phytophthora infestans; [6],90 to 100%
same,inhibition at 0.05 µg/mL,Phytophthora infestans; [6],90 to 100%
same,inhibition at 0.5 µg/mL,Phytophthora infestans; [6],90 to 100%
same,inhibition at 5 µg/mL,Phytophthora infestans; [6],90 to 100%
C=CC(=O)N1CCC(c2nc(C3=NOC(c4c(F)cccc4F)C3)cs2)CC1 (stereo not shown) [Compound I-16],Control effect,"cucumber downy mildew [1]; 1.25 mg/L, Table 1",D (45%≤D<60%)
same,Control effect,"cucumber downy mildew [1]; 5 mg/L, Table 1",C (60%≤C<75%)
same,Control effect,"cucumber downy mildew [1]; 20 mg/L, Table 1",B (75%≤B<90%)
O=C(CC1CCCCC1)N1CCC(c2nc(C3=NOC(c4c(F)cccc4F)C3)cs2)CC1 (stereo not shown) [comparative 5],Control effect,cucumber downy mildew [2]; 0.625 mg/L,E (0% ≤ E < 45%)
same,Control effect,cucumber downy mildew [2]; 2.5 mg/L,D (45% ≤ D < 60%)
same,Control effect,cucumber downy mildew [2]; 10 mg/L,A (90% ≤ A ≤ 100%)
O=C(CN1CCCCC1)N1CCC(c2nc(C3=NOC(c4c(F)cccc4F)C3)cs2)CC1 (stereo not shown) [comparative 6],Control effect,cucumber downy mildew [2]; 0.625 mg/L,E (0% ≤ E < 45%)
same,Control effect,cucumber downy mildew [2]; 2.5 mg/L,E (0% ≤ E < 45%)
same,Control effect,cucumber downy mildew [2]; 10 mg/L,E (0% ≤ E < 45%)
CCOC(CC(=O)N1CCC(c2nc(C3=NOC(c4c(F)cccc4F)C3)cs2)CC1)OCC (stereo not shown) [II-2],Control effect,cucumber downy mildew [1]; [3],B (75%≤B<90%)
same,Control effect,cucumber downy mildew [1]; [4],A (90%≤A≤100%)
same,Control effect,"cucumber downy mildew [1]; 1.25 mg/L, Table 1",A (90%≤A≤100%)
same,Control effect,cucumber downy mildew [1]; [5],A (90%≤A≤100%)
same,Control effect,"cucumber downy mildew [1]; 5 mg/L, Table 1",A (90%≤A≤100%)
same,Control effect,"cucumber downy mildew [1]; 20 mg/L, Table 1",A (90%≤A≤100%)
CO/C=C(/C(=O)N1CCC(c2nc(C3=NOC(c4c(F)cccc4F)C3)cs2)CC1)c1ccccc1 (stereo not shown) [Compound I-12],Control effect,"cucumber downy mildew [1]; 5 mg/L, Table 1",D (45%≤D<60%)
same,Control effect,"cucumber downy mildew [1]; 20 mg/L, Table 1",B (75%≤B<90%)
CCC(C(=O)N1CCC(c2nc(C3=NOC(c4c(F)cccc4F)C3)cs2)CC1)C(OC)OC (stereo not shown) [II-7],Control effect,"cucumber downy mildew [1]; 5 mg/L, Table 1",D (45%≤D<60%)
same,Control effect,"cucumber downy mildew [1]; 20 mg/L, Table 1",B (75%≤B<90%)
CCCC(C(=O)N1CCC(c2nc(C3=NOC(c4c(F)cccc4F)C3)cs2)CC1)C(OC)OC (stereo not shown) [II-8],Control effect,"cucumber downy mildew [1]; 1.25 mg/L, Table 1",D (45%≤D<60%)
same,Control effect,"cucumber downy mildew [1]; 5 mg/L, Table 1",C (60%≤C<75%)
same,Control effect,"cucumber downy mildew [1]; 20 mg/L, Table 1",A (90%≤A≤100%)
